Key:
[1] = system: mouse; settings: Prenatal developmental toxicity study, other, Injection, Intraperitoneal, dose end: 15 GD
[2] = system: mouse; settings: Subchronic inhalation toxicity, b6c3f1, Whole-Body, dose end: 13 week, group: systemic, systemic / organ weight / kidney / absolute + systemic / organ weight / kidney / relative to body weight + systemic / organ weight / liver…
[3] = system: rat; settings: Combined chronic toxicity/carcinogenicity, sprague dawley, Inhalation, Whole-Body, dose end: 2 year, group: systemic
[4] = system: rabbit; settings: Prenatal developmental toxicity study, himalayan, Dermal, Topical, dose end: 18 GD
[5] = system: rat; settings: Prenatal developmental toxicity study; long evans; Inhalation; Whole-Body; dose end: 15 GD; group: developmental; systemic / in life observation / body weight / fetal weight
[6] = system: rat; settings: Prenatal developmental toxicity study, sprague dawley, Oral, Gavage/Intubation, dose end: 15 GD
[7] = system: mouse; settings: Multigenerational reproductive toxicity study, cd1, Oral, Water, dose end: 2 generation
[8] = system: rat; settings: Prenatal developmental toxicity study, sprague dawley, Dermal, Topical, dose end: 15 GD
[9] = system: rat; settings: Subchronic oral toxicity in rodents, wistar, Feed, dose end: 104 day, group: systemic
[10] = system: rat; settings: Subchronic inhalation toxicity, fischer, Whole-Body, dose end: 12 week, group: systemic
[11] = system: rat; settings: Prenatal developmental toxicity study, sprague dawley, Inhalation, Whole-Body, dose end: 15 GD
[12] = system: mouse; settings: Subchronic oral toxicity in rodents, cd1, Feed, dose end: 119 day, group: systemic
[13] = system: mouse; settings: Subchronic inhalation toxicity, other, Whole-Body, dose end: 13 week, group: systemic
[14] = system: rat; settings: Subchronic inhalation toxicity, fischer, Whole-Body, dose end: 13 week, group: systemic
[15] = system: mouse; settings: Carcinogenicity; cd1; Inhalation; Whole-Body; dose end: 18 month; group: systemic; systemic / pathology microscopic / liver / hemosiderosis + systemic / pathology microscopic / liver / hyperplasia + systemic / pathology …
[16] = system: rat; settings: Prenatal developmental toxicity study, sprague dawley, Oral, Gavage/Intubation, dose end: 20 GD
[17] = group: developmental, developmental / developmental malformation / bone / exencephaly
[18] = group: maternal, reproductive / reproductive performance / resorptions / resorptions
[19] = group: maternal, reproductive / reproductive performance / resorptions / resorptions + systemic / in life observation / body weight / body weight + systemic…
[20] = systemic / organ weight / liver / relative to body weight + systemic / pathology microscopic / liver / clear cell focus + systemic / …
[21] = group: developmental, developmental / developmental malformation / general / [other]
[22] = group: maternal, systemic / in life observation / body weight / body weight + systemic / in life observation / clinical signs / skin ulceration
[23] = group: developmental, developmental / developmental malformation / general / [other] + developmental / developmental malformation / general / anasarca + …
[24] = group: maternal, reproductive / reproductive performance / resorptions / resorptions + systemic / in life observation / body weight / body weight gain + …
[25] = group: maternal, systemic / organ weight / placenta / absolute
[26] = group: offspring, developmental / developmental malformation / bone / domed head + developmental / developmental malformation / nose / ecchymosis + systemic…
[27] = group: parental, systemic / organ weight / epididymis / absolute + systemic / organ weight / liver / absolute + systemic / organ weight / liver / relative to…
[28] = group: parental, systemic / organ weight / epididymis / absolute + systemic / organ weight / liver / absolute + systemic / pathology gross / sperm measure / …
[29] = group: reproductive, reproductive / reproductive performance / fertility / fertility + reproductive / offspring survival early / litter size / litter size + …
[30] = group: developmental, developmental / developmental malformation / general / [other] + developmental / developmental malformation / general / crown-rump length
[31] = group: maternal, systemic / organ weight / placenta / absolute + systemic / in life observation / body weight / body weight gain + systemic / in life …
[32] = systemic / clinical chemistry / sodium / sodium + systemic / in life observation / body weight / body weight gain + systemic / in life …
[33] = systemic / clinical chemistry / alanine aminotransferase (alt/sgpt) / alanine aminotransferase (alt/sgpt) + systemic / clinical chemistry / …
[34] = group: developmental, systemic / in life observation / body weight / fetal weight
[35] = group: maternal, systemic / in life observation / body weight / body weight gain
[36] = systemic / organ weight / liver / absolute + systemic / organ weight / liver / relative to body weight + systemic / pathology microscopic / …
[37] = systemic / clinical chemistry / cholesterol / cholesterol + systemic / hematology / erythrocyte (rbc) count differential / erythrocyte (rbc…
[38] = systemic / hematology / erythrocyte (rbc) count differential / erythrocyte (rbc) + systemic / hematology / mean corpuscular (cell) volume (…
[39] = group: developmental, developmental / developmental malformation / bone / incomplete ossification + systemic / in life observation / body weight / fetal weight
[40] = group: maternal, systemic / in life observation / body weight / body weight gain + systemic / in life observation / food consumption / food consumption

CN(C)C=O [N,N-Dimethylformamide]
LEL [1, 17]: 944 mg/kg/day | LOAEL [1, 17]: > 944 mg/kg/day | NEL [1, 17]: 378 mg/kg/day | NOAEL [1, 17]: ≥ 944 mg/kg/day | LEL [1, 18]: 378 mg/kg/day | NEL [1, 18]: < 378 mg/kg/day | LOAEL [1, 19]: > 944 mg/kg/day | NOAEL [1, 19]: ≥ 944 mg/kg/day | LEL [2]: 50 ppm | LOAEL [2]: > 800 ppm | NEL [2]: < 50 ppm | NOAEL [2]: ≥ 800 ppm | LOAEL [3, 20]: > 400 ppm | NEL [3, 20]: 25 ppm | NOAEL [3, 20]: ≥ 400 ppm | LEL ([3]; systemic / organ weight / liver / relative to body weight + systemic / pathology microscopic / liver / hypertrophy + systemic / clinical …): 100 ppm | LEL [4, 21]: 400 mg/kg/day | LOAEL [4, 21]: > 400 mg/kg/day | NEL [4, 21]: 200 mg/kg/day | NOAEL [4, 21]: ≥ 400 mg/kg/day | LEL [4, 22]: 400 mg/kg/day | LOAEL [4, 22]: > 400 mg/kg/day | NEL [4, 22]: 200 mg/kg/day | NOAEL [4, 22]: ≥ 400 mg/kg/day | LEL [5]: 172 ppm | LOAEL [5]: > 172 ppm | NEL [5]: 18 ppm | NOAEL [5]: ≥ 172 ppm | LOAEL [6, 23]: > 1510 mg/kg/day | NEL [6, 23]: 166 mg/kg/day | NOAEL [6, 23]: ≥ 1510 mg/kg/day | LEL ([6]; group: developmental, developmental / developmental malformation / general / [other] + developmental / developmental malformation / general / crown-rump length + …): 503 mg/kg/day | LOAEL [6, 24]: > 1510 mg/kg/day | NOAEL [6, 24]: ≥ 1510 mg/kg/day | LEL [6, 25]: 166 mg/kg/day | NEL [6, 25]: < 166 mg/kg/day | LEL [7, 26]: 545 mg/kg/day | LOAEL [7, 26]: > 1030 mg/kg/day | NEL [7, 26]: 185 mg/kg/day | NOAEL [7, 26]: ≥ 1030 mg/kg/day | LEL [7, 27]: 185 mg/kg/day | NEL [7, 27]: < 185 mg/kg/day | LOAEL [7, 28]: > 1030 mg/kg/day | NOAEL [7, 28]: ≥ 1030 mg/kg/day | NEL ([7]; group: reproductive, reproductive / reproductive performance / fertility / fertility): 185 mg/kg/day | LEL [7, 29]: 545 mg/kg/day | LOAEL [7, 29]: > 1030 mg/kg/day | NOAEL [7, 29]: ≥ 1030 mg/kg/day | LEL [8, 30]: 944 mg/kg/day | LOAEL [8, 30]: > 944 mg/kg/day | NEL [8, 30]: 472 mg/kg/day | NOAEL [8, 30]: ≥ 944 mg/kg/day | LEL [8, 25]: 94 mg/kg/day | NEL [8, 25]: < 94 mg/kg/day | LOAEL [8, 31]: > 944 mg/kg/day | NOAEL [8, 31]: ≥ 944 mg/kg/day | LOAEL [9, 32]: > 210 mg/kg/day | NOAEL [9, 32]: ≥ 210 mg/kg/day | LEL ([9]; systemic / in life observation / food consumption / food consumption): 69 mg/kg/day | NEL ([9]; systemic / in life observation / food consumption / food consumption + systemic / in life observation / body weight / body weight gain + …): 20 mg/kg/day | LOAEL [10, 33]: > 1200 ppm | NOAEL [10, 33]: ≥ 1200 ppm | LEL ([10]; systemic / clinical chemistry / alkaline phosphatase (alp/alk) / alkaline phosphatase (alp/alk)): 300 ppm | NEL ([10]; systemic / clinical chemistry / alkaline phosphatase (alp/alk) / alkaline phosphatase (alp/alk) + systemic / clinical chemistry / aspartate …): 150 ppm | LEL [11, 34]: 300 ppm | LOAEL [11, 34]: > 300 ppm | NEL [11, 34]: 30 ppm | NOAEL [11, 34]: ≥ 300 ppm | LEL [11, 35]: 300 ppm | LOAEL [11, 35]: > 300 ppm | NEL [11, 35]: 30 ppm | NOAEL [11, 35]: ≥ 300 ppm | LOAEL [12, 36]: > 246 mg/kg/day | NOAEL [12, 36]: ≥ 246 mg/kg/day | LEL ([12]; systemic / organ weight / liver / relative to body weight): 96 mg/kg/day | NEL ([12]; systemic / organ weight / liver / relative to body weight + systemic / clinical chemistry / alanine aminotransferase (alt/sgpt) / alanine …): 28 mg/kg/day | LOAEL [13, 33]: > 800 ppm | NOAEL [13, 33]: ≥ 800 ppm | LEL [13, 37]: 50 ppm | NEL [13, 37]: < 50 ppm | LOAEL [14, 33]: > 800 ppm | NOAEL [14, 33]: ≥ 800 ppm | LEL [14, 38]: 50 ppm | NEL [14, 38]: < 50 ppm | LEL [15]: 25 ppm | LOAEL [15]: > 400 ppm | NEL [15]: < 25 ppm | NOAEL [15]: ≥ 400 ppm | LOAEL [16, 39]: > 300 mg/kg/day | NEL [16, 39]: 50 mg/kg/day | NOAEL [16, 39]: ≥ 300 mg/kg/day | LEL [16, 34]: 100 mg/kg/day | LEL [16, 40]: 100 mg/kg/day | LOAEL [16, 40]: > 300 mg/kg/day | NEL [16, 40]: 50 mg/kg/day | NOAEL [16, 40]: ≥ 300 mg/kg/day

— EPA's ToxRefDB 2
